# Source: paper PMC6753678, “Fueling Open Innovation for Malaria Transmission-Blocking Drugs: Hundreds of Molecules Targeting Early Parasite Mosquito Stages” (Frontiers in Microbiology, 2019)
# Where two headings read alike, the source gives them in different places.
# Columns and labels:
# [1] = system: P. berghei ookinete development; settings: for % inhibition, Replicate A / % inhibition, Replicate B: primary screen at 1 μM
# [2] = system: 3D7-strain P. falciparum asexual parasites; assay: P. falciparum asexual growth inhibition assay (Pf GIA); format: cell-based, Plasmodium falciparum; settings: dose response confirmation; read-out: Pf asexual growth inhibition assays IC50
# Summary of the method: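 0.25% parasitemia, 2% Hct, RPMI/HEPES/hypoxanthine/5% Albumax; compound dose response, 72 h, 37°C, 5% CO2, 5% O2, 90% N2. Freeze-thaw, then LDH assay, A650. % inhibition vs chloroquine (50 μM)/DMSO, mean of 3 independent runs.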
# HepG2 cells = assay: HepG2 cytotoxicity assay; settings: for Pb ODA (this manuscript) HepG2 cytoxicity: HepG2 cytotoxicity listed with the Pb ODA data set (this manuscript); for IC50: read-out: HepG2 cytotoxicity assay IC50, dose response confirmation
# Summary of the method: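 HepG2 cells, 2,500 per well in MEM with 10% FBS and 1% NEAA, exposed to compounds for 48 h at 37°C, 5% CO2. Viability read by fluorescence; percent inhibition relative to 50 μM doxorubicin and DMSO controls.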
# [3] = read-out: Pb ODA (this manuscript) IC50, P. berghei ookinete development assay, this manuscript
# [4] = read-out: Pb Ookinete development assay IC50, dose response confirmation
Structure (SMILES),Is compound selective in assay? Pb ODA active? [1],"% inhibition, Replicate A [1]","% inhibition, Replicate B [1]","IC50 [1, 3]","IC50 [1, 4]",IC50 [2],Pb ODA (this manuscript) HepG2 cytoxicity (HepG2 cells),IC50 (HepG2 cells),"Is compound selective in assay? Pb ODA active? ([1]; 1: YES, 0: NO)","IC50 ([1]; read-out: Pb ODA IC50, this manuscript)",Unified cytotox (HepG2 cells; unified HepG2 value across the three screens)
CNC(=O)c1ccccc1Nc1nc(Nc2ccc(CCN3CCN(C)CC3)cc2)ncc1Cl.Cl [TCMDC-133800],0 (key: 1: YES; 0: NO),66.37%,76.75%,2310 nM,2320 nM,402 nM,2.26 µM,2260 nM,,,
Cc1cccc2nc(-c3ccc(-c4ccc(CN5CC(C)OC(C)C5)cc4)cc3)[nH]c12.O=C(O)C(F)(F)F (stereo not shown) [TCMDC-133823],1 (key: 1: YES; 0: NO),122.68%,88.91%,430 nM,434 nM,168 nM,15.14 µM,15100 nM,,,
Cc1cccc2nc(-c3ccc(-c4ccc(CN5CCOCC5)cc4)cc3)[nH]c12.O=C(O)C(F)(F)F [TCMDC-133825],1 (key: 1: YES; 0: NO),75.48%,125.42%,630 nM,635 nM,2230 nM,27.54 µM,27500 nM,,,
Cc1cccc2nc(-c3ccc(-c4ccc(CN5CCCC(O)C5)cc4)cc3)[nH]c12.O=C(O)C(F)(F)F (stereo not shown) [TCMDC-133826],0 (key: 1: YES; 0: NO),58.08%,28.26%,,9270 nM,1480 nM,12.88 µM,12900 nM,,,
CC1CN(Cc2ccc(-c3ccc(-c4nc5ccccc5[nH]4)cc3)cc2)CC(C)O1.O=C(O)C(F)(F)F (stereo not shown) [TCMDC-133828],1 (key: 1: YES; 0: NO),97.54%,72.23%,870 nM,868 nM,1140 nM,30.20 µM,30200 nM,,,
CC1CN(Cc2ccc(-c3ccc(-c4nc5cc(F)ccc5[nH]4)cc3)cc2)CC(C)O1.O=C(O)C(F)(F)F (stereo not shown) [TCMDC-133831],1 (key: 1: YES; 0: NO),81.24%,52.13%,,1180 nM,1220 nM,24.55 µM,24600 nM,,,
N#Cc1ccc(CN2CCC(Oc3ccc(NC(=O)c4cccs4)cc3Cl)CC2)cc1.O=C(O)C(F)(F)F [TCMDC-133955],0 (key: 1: YES; 0: NO),56.20%,46.08%,4360 nM,4360 nM,600 nM,36.31 µM,36300 nM,,,
CC(C)CCN1CCC(Oc2ccc(NC(=O)c3cccs3)cc2Cl)CC1.O=C(O)C(F)(F)F [TCMDC-133974],1 (key: 1: YES; 0: NO),38.26%,57.89%,1450 nM,1450 nM,660 nM,21.38 µM,21400 nM,,,
CNC(=O)c1cc(F)c(F)cc1Nc1nc(Nc2cccc(CS(C)(=O)=O)c2)ncc1Cl.O=CO [TCMDC-134060],1 (key: 1: YES; 0: NO),53.04%,41.11%,2150 nM,2150 nM,1570 nM,100.00 µM,100000 nM,,,
CN1CCN(c2ccc(Nc3ncc(C#N)c(Nc4ccccc4C(N)=O)n3)cc2)CC1.Cl [TCMDC-134116],1 (key: 1: YES; 0: NO),134.36%,120.59%,31.6 nM,32 nM,28 nM,2.43 µM,2430 nM,,,
COc1ccc(Nc2ncc(C#N)c(Nc3ccccc3C(N)=O)n2)cc1N1CCN(C)CC1.Cl [TCMDC-134117],1 (key: 1: YES; 0: NO),92.85%,98.42%,25.5 nM,26 nM,63 nM,8.32 µM,8320 nM,,,
CNC(=O)c1ccccc1Nc1nc(Nc2ccc(N3CCOCC3)cc2)ncc1Cl.Cl [TCMDC-134144],0 (key: 1: YES; 0: NO),67.63%,105.55%,390 nM,387 nM,1990 nM,3.63 µM,3630 nM,,,
COc1ccc(Nc2ncc(OC)c(Nc3ccccc3C(N)=O)n2)cc1N1CCN(C)CC1.O=CO [TCMDC-134149],1 (key: 1: YES; 0: NO),85.24%,71.46%,,270 nM,846 nM,13.49 µM,13500 nM,,,
NCC(NC(=O)c1ccc(-c2c[nH]c3ncccc23)s1)c1ccccc1.O=CO (stereo not shown) [TCMDC-134154],,101.79%,81.42%,,964 nM,558 nM,,16200 nM,1 (1: YES),960 nM,16.22 µM
COc1ccc(Nc2ncc(Cl)c(Nc3cccnc3C(N)=O)n2)cc1N1CCN(C)CC1.Cl [TCMDC-134163],1 (key: 1: YES; 0: NO),91.07%,92.91%,,380 nM,169 nM,11.22 µM,11200 nM,,,
CN1CCN(c2ccc(Nc3ncc(Cl)c(Nc4cccnc4C(N)=O)n3)cc2)CC1.Cl [TCMDC-134164],1 (key: 1: YES; 0: NO),96.98%,90.60%,230 nM,226 nM,84 nM,4.62 µM,4620 nM,,,
CS(=O)(=O)Cc1ccc(Nc2ncc(Cl)c(Nc3cccnc3C(N)=O)n2)cc1.Cl [TCMDC-134165],1 (key: 1: YES; 0: NO),41.15%,108.98%,700 nM,699 nM,969 nM,100.00 µM,100000 nM,,,
CS(=O)(=O)Cc1cccc(Nc2ncc(Cl)c(Nc3cccnc3C(N)=O)n2)c1.Cl [TCMDC-134166],0 (key: 1: YES; 0: NO),102.49%,90.53%,1210 nM,1200 nM,273 nM,4.79 µM,4790 nM,,,
NC(=O)c1ccccc1Nc1nc(Nc2cc[nH]n2)ncc1Cl [TCMDC-134169],1 (key: 1: YES; 0: NO),78.38%,61.96%,510 nM,513 nM,2310 nM,13.18 µM,13200 nM,,,
